Results reported in ChEMBL document CHEMBL1126063, “A novel probe for the cannabinoid receptor” (J Med Chem, 1992).

Key:
Cannabinoid receptor = Cannabinoid receptor (Rattus norvegicus, UniProt Q9QZN9+P20272); assay: Compound was evaluated for the competitive inhibition of [3H]3-(1,1-Dimethyl-heptyl)-9-hydroxymethyl-6,6-dimethyl-6a,7,8,9,10,10a-hexahydro-6H-benzo[c]chromen-1-ol to cannabinoid receptor from synaptosomal membranes of rat whole brain
Columba livia [1] = assay: Effective dose injected to pigeons in drug discrimination test at a given period of 1.5 hours; type: functional; conditions: in Columbidae
Columba livia [2] = assay: Effective dose injected to pigeons in drug discrimination test at a given period of 4.5 hours; type: functional; conditions: in Columbidae
Columba livia [3] = assay: Effective dose injected to pigeons in drug discrimination test at a given period of 9.0 hours; type: functional; conditions: in Columbidae

Compound: CCCCCCC(C)(C)c1cc(O)c2c(c1)OC(C)(C)[C@@H]1CC=C(CO)CC21 (some centres not stated)
- Ki (Cannabinoid receptor): 0.181 nM
- ED50 (Columba livia [1]): 4 µg/kg
- ED50 (Columba livia [2]): 2 µg/kg
- ED50 (Columba livia [3]): 2 µg/kg

Compound: CCCCCCC(C)(C)c1cc(O)c2c(c1)OC(C)(C)[C@@H]1CC[C@@H](CO)CC21 (some centres not stated)
- Ki (Cannabinoid receptor): 0.045 nM
- ED50 (Columba livia [1]): 5 µg/kg
- ED50 (Columba livia [2]): 2 µg/kg
- ED50 (Columba livia [3]): 3 µg/kg

Compound: CCCCCCC(C)(C)c1cc(O)c2c(c1)OC(C)(C)C1CC=C(CO)CC21 (configuration not stated)
- Ki (Cannabinoid receptor): 466 nM

Compound: CCCCCc1cc(O)c2c(c1)OC(C)(C)[C@@H]1CCC(C)=C[C@@H]21 [DRONABINOL]
- ED50 (Columba livia [1]): 160 µg/kg
- ED50 (Columba livia [2]): 250 µg/kg
- ED50 (Columba livia [3]): 1210 µg/kg
